Common to all, as to assay: microbe, parasite or virus in culture
Common to all, as to format: cell-based

One assay relates to B. anthracis. As to conditions: Bacillus anthracis, read-out: MIC B. anthracis.
The subject of the next assay is F. tularensis. As to conditions: Francisella tularensis, read-out: MIC F. tularensis.
The next assay deals with B. abortus. As to conditions: Brucella abortus, read-out: MIC B. abortus.
For a further assay, the system named is B. pseudomallei. As to conditions: Burkholderia pseudomallei, read-out: MIC B. pseudomallei.

≈ marks a conversion by molar mass, not a printed value.

`Cc1c(-c2cccc(N)c2)ccn2c(=O)c(C(=O)O)cc(C3CC3)c12` [Compound 9, 8-(3-amino-phenyl)-1-cyclopropyl-9-methyl-4-oxo-quinolizine-3-carboxylic acid]: the MIC in the assay on B. anthracis was determined as 0.06 µg/mL (≈ 0.179 µM); in the assay with F. tularensis, 0.125 µg/mL (≈ 0.374 µM); with B. abortus, 0.25 µg/mL (≈ 0.748 µM); with B. pseudomallei, 0.5 µg/mL (≈ 1.5 µM).

The values are drawn from patent US10155021B2, “Antimicrobial 4-oxoquinolizines” (Emergent Product Development Gaithersburg Inc., priority 2011, dated 2018).
